Measured values from patent publication US8828401B2, “Cytotoxic peptides and antibody drug conjugates thereof” (Pfizer Inc., priority 2011, dated 2014).
Starred links: 1 amine or outer side, 2 acyl side, 3 side chain; linkers in the order of their positions; H or OH if unused. Non-standard residues stand in square brackets, D forms with d. Residues, ends and D or L forms follow the SMILES beside them. *: point of attachment. Dolaproine = CO[C@@H]([C@@H]1CCCN1)[C@@H](C)C(=O)O; X12 = O=C([C@@H](N[*:1])[C@@H]1Cc2ccccc21)[*:2]; Dil = CC[C@H](C)[C@H](NC)[C@@H](CC(=O)O)OC; Phe(4-NH2) = Nc1ccc(C[C@H](N)C(=O)O)cc1; X10 = C[C@@H](N*)[C@@H](O)c1ccccc1; NMeαMePro = CN1CCC[C@@]1(C)C(=O)*; Ac4c(3-oxa) = NC1(C(=O)O)COC1; αMeP = C[C@@]1(C(=O)O)CCCN1; dIva = CC[C@@](C)(N)C(=O)O; X1 = CN1CCC[C@]1(C)C(=O)*; NMeAib = CNC(C)(C)C(=O)O; X8 = C1=CC=CC(CCN*)C=C1; Aib = CC(C)(N)C(=O)O; X14 = c1[nH]nnc1CN*

Columns and labels:
[1] = system: MDA-MB-361-DYT2 (breast cancer); assay: In vitro cell assay, MTS cell viability 96 hours after treatment; type: cell-based; settings: read-out: MDA-MB-361-DYT2 GMEAN IC50, MDA-MB-361-DYT2 cells; geometric mean; cytotoxic peptides
Description: (§1) Cells were treated with 3-fold serially diluted antibody-drug conjugates or free compounds (i.e., no antibody conjugated to the drug) in duplicate at 10 concentrations. Cell viability was determined by CellTiter 96® AQueous One Solution Cell Proliferation MTS Assay (Promega, Madison Wis.) 96 hours after treatment. Relative cell viability was determined as percentage of untreated control.

[2] = system: N87 (gastric cancer); assay: as above; type: cell-based; settings: read-out: N87 GMEAN IC50, N87 cells; geometric mean; cytotoxic peptides
Description: as §1

Compound `CC[C@H](C)[C@@H]([C@@H](CC(=O)N1CCC[C@H]1[C@H](OC)[C@@H](C)C(=S)NCCc1ccccc1)OC)N(C)C(=O)[C@@H](NC(=O)[C@@H](NC)C(C)C)C(C)C` [#36, N-methyl-L-valyl-N-{(3R,4S,5S)-3-methoxy-1-[(2S)-2-{(1R,2R)-1-methoxy-2-methyl-3-[(2-phenylethyl)amino]-3-thioxopropyl}pyrrolidin-1-yl]-5-methyl-1-oxoheptan-4-yl}-N-methyl-L-valinamide] has an IC50 [1] of 1.11 nM and an IC50 [2] of 1.21 nM.
`CC[C@H](C)[C@@H]([C@@H](CC(=O)N1CCC[C@H]1[C@H](OC)[C@@H](C)C(=S)N[C@@H](Cc1ccccc1)C(=O)OC)OC)N(C)C(=O)[C@@H](NC(=O)C(C)(C)N)C(C)C` [#45, 2-methylalanyl-N-[(3R,4S,5S)-3-methoxy-1-{(2S)-2-[(1R,2R)-1-methoxy-3-{[(2S)-1-methoxy-1-oxo-3-phenylpropan-2-yl]amino}-2-methyl-3-thioxopropyl]pyrrolidin-1-yl}-5-methyl-1-oxoheptan-4-yl]-N-methyl-L-valinamide] showed an IC50 [1] of 0.415 nM and an IC50 [2] of 0.385 nM.
Compound `CC[C@H](C)[C@@H]([C@@H](CC(=O)N1CCC[C@H]1[C@H](OC)[C@@H](C)C(=O)N[C@@H](Cc1ccc(N)cc1)C(=O)OC)OC)N(C)C(=O)[C@@H](NC(=O)[C@]1(C)CCCN1C)C(C)C` [#208, 1,2-dimethyl-L-prolyl-N-[(3R,4S,5S)-1-{(2S)-2-[(1R,2R)-3-{[(2S)-3-(4-aminophenyl)-1-methoxy-1-oxopropan-2-yl]amino}-1-methoxy-2-methyl-3-oxopropyl]pyrrolidin-1-yl}-3-methoxy-5-methyl-1-oxoheptan-4-yl]-N-methyl-L-valinamide] (NMeαMePro-V[Dil][Dolaproine][Phe(4-NH2)]-OMe) has an IC50 [1] of 0.336 nM and an IC50 [2] of 0.379 nM.
In the case of `CC[C@H](C)[C@@H]([C@@H](CC(=O)N1CCC[C@H]1[C@H](OC)[C@@H](C)C(=O)N[C@@H](Cc1ccccc1)C(=O)OC)OC)N(C)C(=O)[C@@H](NC(=O)C(C)(C)N)C(C)C` [#70, 2-methylalanyl-N-[(3R,4S,5S)-3-methoxy-1-{(2S)-2-[(1R,2R)-1-methoxy-3-{[(2S)-1-methoxy-1-oxo-3-phenylpropan-2-yl]amino}-2-methyl-3-oxopropyl]pyrrolidin-1-yl}-5-methyl-1-oxoheptan-4-yl]-N-methyl-L-valinamide] (H-[Aib]V[Dil][Dolaproine]F-OMe), the IC50 [1] is reported as 0.225 nM and the IC50 [2] is reported as 0.327 nM.
For `CC[C@H](C)[C@@H]([C@@H](CC(=O)N1CCC[C@H]1[C@H](OC)[C@@H](C)C(=O)N[C@@H](Cc1ccccc1)C(=O)O)OC)N(C)C(=O)[C@@H](NC(=O)[C@@]1(C)CCCN1C)C(C)C` [#153, 1,2-dimethyl-D-prolyl-N-{(1S,2R)-4-{(2S)-2-[(1R,2R)-3-{[(1S)-1-carboxy-2-phenylethyl]amino}-1-methoxy-2-methyl-3-oxopropyl]pyrrolidin-1-yl}-2-methoxy-1-[(1S)-1-methylpropyl]-4-oxobutyl}-N-methyl-L-valinamide] (X1-V[Dil][Dolaproine]F-OH), the IC50 [1] was 91.3 nM and the IC50 [2] was 47.3 nM.
With `CC[C@H](C)[C@@H]([C@@H](CC(=O)N1CCC[C@H]1[C@H](OC)[C@@H](C)C(=O)N[C@@H](Cc1ccccc1)c1nccs1)OC)N(C)C(=O)[C@@H](NC(=O)[C@]1(C)CCCCN1)C(C)C` [#188, (2S)—N-[(2S)-1-{[(3R,4S,5S)-3-methoxy-1-{(2S)-2-[(1R,2R)-1-methoxy-2-methyl-3-oxo-3-{[(1S)-2-phenyl-1-(1,3-thiazol-2-yl)ethyl]amino}propyl]pyrrolidin-1-yl}-5-methyl-1-oxoheptan-4-yl](methyl)amino}-3-methyl-1-oxobutan-2-yl]-2-methylpiperidine-2-carboxamide] the IC50 [1] was 0.404 nM.
For `CC[C@H](C)[C@@H]([C@@H](CC(=O)N1CCC[C@H]1[C@H](OC)[C@@H](C)C(=O)N[C@H](C(=O)OC)[C@@H]1Cc2ccccc21)OC)N(C)C(=O)[C@@H](NC(=O)C(C)(C)N)C(C)C` [#227] (H-[Aib]V[Dil][Dolaproine][X12]-OMe), the IC50 [1] was 12.9 nM and the IC50 [2] was 19 nM.
Work on `CC[C@H](C)[C@@H]([C@@H](CC(=O)N1CCC[C@H]1[C@H](OC)[C@@H](C)C(=O)N[C@H](C)[C@@H](O)c1ccccc1)OC)N(C)C(=O)[C@@H](NC(=O)C(C)(C)NC)C(C)C` [#145, N,2-dimethylalanyl-N-{(1S,2R)-4-{(2S)-2-[(1R,2R)-3-{[(1R,2S)-2-hydroxy-1-methyl-2-phenylethyl]amino}-1-methoxy-2-methyl-3-oxopropyl]pyrrolidin-1-yl}-2-methoxy-1-[(1S)-1-methylpropyl]-4-oxobutyl}-N-methyl-L-valinamide] (H-[NMeAib]V[Dil][Dolaproine]-X10) yielded an IC50 [1] of 0.229 nM and an IC50 [2] of 0.167 nM.
`CC[C@H](C)[C@@H]([C@@H](CC(=O)N1CCC[C@H]1[C@H](OC)[C@@H](C)C(=O)N[C@H](C)[C@@H](O)c1ccccc1)OC)N(C)C(=O)[C@@H](NC(=O)[C@]1(C)CCCN1)C(C)C` [#134, 2-methyl-L-prolyl-N-[(3R,4S,5S)-1-{(2S)-2-[(1R,2R)-3-{[(1S,2R)-1-hydroxy-1-phenylpropan-2-yl]amino}-1-methoxy-2-methyl-3-oxopropyl]pyrrolidin-1-yl}-3-methoxy-5-methyl-1-oxoheptan-4-yl]-N-methyl-L-valinamide] (H-[αMeP]V[Dil][Dolaproine]-X10) was tested, and the IC50 [1] was 0.134 nM and the IC50 [2] was 0.115 nM.
With `CC[C@H](C)[C@@H]([C@@H](CC(=O)N1CCC[C@H]1[C@H](OC)[C@@H](C)C(=O)NCCC1C=CC=CC=C1)OC)N(C)C(=O)[C@@H](NC(=O)C(C)(C)N)C(C)C` [#66, 2-Methylalanyl-N-[(3R,4S,5S)-1-{(2S)-2-[(1R,2R)-3-{[2-(cyclohepta-2,4,6-trien-1-yl)ethyl]amino}-1-methoxy-2-methyl-3-oxopropyl]pyrrolidin-1-yl}-3-methoxy-5-methyl-1-oxoheptan-4-yl]-N-methyl-L-valinamide] (H-[Aib]V[Dil][Dolaproine]-X8) the IC50 [1] was 0.334 nM.
`CC[C@H](C)[C@@H]([C@@H](CC(=O)N1CCC[C@H]1[C@H](OC)[C@@H](C)C(=O)N[C@@H](Cc1ccccc1)C(=O)OC)OC)N(C)C(=O)[C@@H](NC(=O)C1(N)COC1)C(C)C` [#233] (H-[Ac4c(3-oxa)]V[Dil][Dolaproine]F-OMe) gave an IC50 [1] of 5.04 nM and an IC50 [2] of 8.41 nM.
For `CC[C@H](C)[C@@H]([C@@H](CC(=O)N1CCC[C@H]1[C@H](OC)[C@@H](C)C(=O)N[C@@H](Cc1ccc(O)cc1)C(=O)OC)OC)N(C)C(=O)[C@@H](NC(=O)C(C)(C)NC)C(C)C` [#243] (H-[NMeAib]V[Dil][Dolaproine]Y-OMe), the IC50 [1] was 1.28 nM and the IC50 [2] was 1.3 nM.
`CC[C@H](C)[C@@H]([C@@H](CC(=O)N1CCC[C@H]1[C@H](OC)[C@@H](C)C(=O)NCCC1C=CC=CC=C1)OC)N(C)C(=O)[C@@H](NC(=O)[C@]1(C)CCCN1)C(C)C` [#182, 2-methyl-L-prolyl-N-[(3R,4S,5S)-1-{(2S)-2-[(1R,2R)-3-{[2-(cyclohepta-2,4,6-trien-1-yl)ethyl]amino}-1-methoxy-2-methyl-3-oxopropyl]pyrrolidin-1-yl}-3-methoxy-5-methyl-1-oxoheptan-4-yl]-N-methyl-L-valinamide] (H-[αMeP]V[Dil][Dolaproine]-X8) was tested, and the IC50 [1] was 0.122 nM and the IC50 [2] was 0.148 nM.
`CC[C@H](C)[C@@H]([C@@H](CC(=O)N1CCC[C@H]1[C@H](OC)[C@@H](C)C(=O)N[C@@H](Cc1ccccc1)C(=O)OC)OC)N(C)C(=O)[C@@H](NC(=O)C(C)(C)CN)C(C)C` [#126, methyl N-[(2R,3R)-3-{(2S)-1-[(3R,4S,5S)-4-{[N-(3-amino-2,2-dimethylpropanoyl)-L-valyl](methyl)amino}-3-methoxy-5-methylheptanoyl]pyrrolidin-2-yl}-3-methoxy-2-methylpropanoyl]-L-phenylalaninate] was tested, and the IC50 [1] was 0.454 nM and the IC50 [2] was 0.375 nM.
`CC[C@H](C)[C@@H]([C@@H](CC(=O)N1CCC[C@H]1[C@H](OC)[C@@H](C)C(=O)N[C@@H](Cc1ccccc1)C(=O)OC)OC)N(C)C(=O)[C@@H](NC(=O)[C@](C)(N)CC)C(C)C` [#149, D-isovalyl-N-{(1S,2R)-4-{(2S)-2-[(1R,2R)-3-{[(1S)-1-benzyl-2-methoxy-2-oxoethyl]amino}-1-methoxy-2-methyl-3-oxopropyl]pyrrolidin-1-yl}-2-methoxy-1-[(1S)-1-methylpropyl]-4-oxobutyl}-N-methyl-L-valinamide] (H-[dIva]V[Dil][Dolaproine]F-OMe) showed an IC50 [1] of 0.428 nM.
`CC[C@H](C)[C@@H]([C@@H](CC(=O)N1CCC[C@H]1[C@H](OC)[C@@H](C)C(=S)N[C@@H](Cc1ccccc1)c1nccs1)OC)N(C)C(=O)[C@@H](NC(=O)[C@@H](NC)C(C)C)C(C)C` [#26, N-methyl-L-valyl-N-[(3R,4S,5S)-3-methoxy-1-{(2S)-2-[(1R,2R)-1-methoxy-2-methyl-3-{[(1S)-2-phenyl-1-(1,3-thiazol-2-yl)ethyl]amino}-3-thioxopropyl]pyrrolidin-1-yl}-5-methyl-1-oxoheptan-4-yl]-N-methyl-L-valinamide] gave an IC50 [1] of 1.04 nM and an IC50 [2] of 0.543 nM.
`CC[C@H](C)[C@@H]([C@@H](CC(=O)N1CCC[C@H]1[C@H](OC)[C@@H](C)C(=O)N[C@@H](Cc1ccc2c(c1)CCCN2)C(=O)OC)OC)N(C)C(=O)[C@@H](NC(=O)[C@]1(C)CCCN1C)C(C)C` [#207, 1,2-dimethyl-L-prolyl-N-[(3R,4S,5S)-3-methoxy-1-{(2S)-2-[(1R,2R)-1-methoxy-3-{[(2S)-1-methoxy-1-oxo-3-(1,2,3,4-tetrahydroquinolin-6-yl)propan-2-yl]amino}-2-methyl-3-oxopropyl]pyrrolidin-1-yl}-5-methyl-1-oxoheptan-4-yl]-N-methyl-L-valinamide] gave an IC50 [2] of 0.626 nM.
Work on `CC[C@H](C)[C@@H]([C@@H](CC(=O)N1CCC[C@H]1[C@H](OC)[C@@H](C)C(=O)N[C@@H](Cc1ccccc1)C(=O)NCc1c[nH]nn1)OC)N(C)C(=O)[C@@H](NC(=O)C(C)(C)NC)C(C)C` [#240] (H-[NMeAib]V[Dil][Dolaproine]F-X14) yielded an IC50 [1] of 23.5 nM and an IC50 [2] of 19.9 nM.
